# From article PMC10882719 (Frontiers in Neuroscience, 2024)
# Where two headings read alike, the source gives them in different places.
# What was measured:
# Type in all cases: cell-based
# 5HT5A = biological target: T1, 5HT5A (Homo sapiens, UniProt P47898); experiment: GPCRmax screen, agonist mode, 5HT5A; conditions: for % Agonist Activity: HTR5A
# T1 construct: β-galactosidase enzyme fragment (enzyme fragment complementation reporter); host or cells: PathHunter cell lines
# Method: (§1) Studies were performed at Eurofins DiscoverX Corporation (Fremont, CA) using the GPCRmax assay according to the manufacturer’s protocols. […] Activity greater than 30% typically indicates agonist activity and inhibition greater than 50% indicates antagonist activity. This assay uses enzyme fragment complementation with […] as the functional reporter. When a GPCR is activated, […] is recruited and the reporter is detectable. GPCRmax offers a high-throughput screen of 168 GPCRs for agonist or antagonist activity. Briefly, PathHunter cell lines were propagated, seeded into 384-well microplates and incubated at 37°C. […] Microplates were read following signal generation with a PerkinElmer Envision™ instrument for chemiluminescent signal detection. Compound activity was analyzed using CBIS data analysis suite (ChemInnovation, CA) to determine raw values (RLU). For agonist mode assay, percentage activity was calculated using the following formula: % Activity =100% × (mean RLU of test sample - mean RLU of vehicle control) / (mean MAX control ligand - mean RLU of vehicle control). For antagonist mode assay, percentage inhibition was calculated using the following formula: % Inhibition =100% × (1 - (mean RLU of test sample - mean RLU of vehicle control) / (mean RLU of EC80 control - mean RLU of vehicle control)).
# 5HT2C receptor = biological target: T2, 5HT2C receptor (Homo sapiens, UniProt P28335); experiment: GPCRmax screen, antagonist mode, 5HT2C; conditions: for % Antagonist Activity: HTR2C
# T2 construct: β-galactosidase enzyme fragment (enzyme fragment complementation reporter); host or cells: PathHunter cell lines
# T2 sequence (P28335 33-458): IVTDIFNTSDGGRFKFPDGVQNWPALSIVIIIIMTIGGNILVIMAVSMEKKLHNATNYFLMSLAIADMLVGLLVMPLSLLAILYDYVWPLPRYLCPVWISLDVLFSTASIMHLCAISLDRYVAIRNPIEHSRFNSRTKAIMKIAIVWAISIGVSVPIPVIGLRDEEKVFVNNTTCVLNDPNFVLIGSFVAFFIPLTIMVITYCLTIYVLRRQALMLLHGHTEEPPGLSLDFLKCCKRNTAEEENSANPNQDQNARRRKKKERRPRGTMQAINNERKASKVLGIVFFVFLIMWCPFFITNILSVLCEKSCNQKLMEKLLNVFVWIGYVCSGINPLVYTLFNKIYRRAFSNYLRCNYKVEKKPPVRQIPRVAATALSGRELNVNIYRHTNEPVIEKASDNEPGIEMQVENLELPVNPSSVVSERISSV
# Method: as §1
# 5HT2A receptor = biological target: T3, 5HT2A receptor (Homo sapiens, UniProt P28223); experiment: GPCRmax screen, agonist mode, 5HT2A; conditions: for % Agonist Activity: HTR2A
# T3 construct: β-galactosidase enzyme fragment (enzyme fragment complementation reporter); host or cells: PathHunter cell lines
# Method: as §1
# 168 GPCRs [1] = biological target: T4, 168 GPCRs (Homo sapiens, UniProt P30411)
# T4 construct: host or cells: PathHunter cell lines
# T4 sequence (P30411 1-391): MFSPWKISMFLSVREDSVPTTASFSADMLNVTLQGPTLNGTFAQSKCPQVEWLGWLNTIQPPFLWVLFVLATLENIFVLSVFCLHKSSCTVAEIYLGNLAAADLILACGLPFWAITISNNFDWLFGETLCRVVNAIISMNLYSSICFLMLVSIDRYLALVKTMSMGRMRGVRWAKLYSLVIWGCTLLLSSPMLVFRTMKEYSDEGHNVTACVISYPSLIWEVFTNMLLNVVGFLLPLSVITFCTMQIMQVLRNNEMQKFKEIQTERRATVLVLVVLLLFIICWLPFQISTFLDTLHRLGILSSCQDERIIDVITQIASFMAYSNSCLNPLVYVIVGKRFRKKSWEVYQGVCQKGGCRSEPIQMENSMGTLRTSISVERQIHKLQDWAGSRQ
# Method: as §1
# 168 GPCRs [2] = biological target: T5, 168 GPCRs (Homo sapiens, UniProt P49683); conditions: PRLHR
# T5 construct: host or cells: PathHunter cell lines
# T5 sequence (P49683 1-370): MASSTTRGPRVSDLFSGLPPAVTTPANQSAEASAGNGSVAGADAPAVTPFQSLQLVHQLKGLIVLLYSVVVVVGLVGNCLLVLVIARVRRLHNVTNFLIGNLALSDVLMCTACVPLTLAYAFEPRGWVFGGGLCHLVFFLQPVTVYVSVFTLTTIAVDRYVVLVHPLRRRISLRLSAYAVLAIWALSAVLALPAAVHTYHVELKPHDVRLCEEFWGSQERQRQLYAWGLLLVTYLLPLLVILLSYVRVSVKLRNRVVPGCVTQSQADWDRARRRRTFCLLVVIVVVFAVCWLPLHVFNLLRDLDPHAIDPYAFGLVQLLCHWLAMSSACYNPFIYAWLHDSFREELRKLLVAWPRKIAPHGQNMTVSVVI
# Method: as §1
# 168 GPCRs [3] = biological target: T6, 168 GPCRs (Homo sapiens, UniProt Q96G91); conditions: P2RY11
# T6 construct: host or cells: PathHunter cell lines
# T6 sequence (Q96G91 1-374): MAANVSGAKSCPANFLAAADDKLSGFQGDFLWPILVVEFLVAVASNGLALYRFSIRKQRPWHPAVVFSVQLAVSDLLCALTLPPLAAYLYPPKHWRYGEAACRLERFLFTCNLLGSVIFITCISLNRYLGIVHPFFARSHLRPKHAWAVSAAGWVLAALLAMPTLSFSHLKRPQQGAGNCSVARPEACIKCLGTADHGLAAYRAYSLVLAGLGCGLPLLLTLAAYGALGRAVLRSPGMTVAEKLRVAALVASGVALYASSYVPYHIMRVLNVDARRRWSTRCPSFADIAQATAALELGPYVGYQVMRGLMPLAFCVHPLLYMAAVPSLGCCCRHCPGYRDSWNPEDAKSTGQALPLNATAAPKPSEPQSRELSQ
# Method: as §1
# 168 GPCRs [4] = biological target: T7, 168 GPCRs (Homo sapiens, UniProt P21918)
# T7 construct: host or cells: PathHunter cell lines
# Method: as §1
# 168 GPCRs [5] = biological target: T8, 168 GPCRs (Homo sapiens, UniProt P51685)
# T8 construct: host or cells: PathHunter cell lines
# Method: as §1
# 168 GPCRs [6] = biological target: T9, 168 GPCRs (Homo sapiens, UniProt P25021)
# T9 construct: host or cells: PathHunter cell lines
# Method: as §1
# T8 sequence (P51685 whole entry): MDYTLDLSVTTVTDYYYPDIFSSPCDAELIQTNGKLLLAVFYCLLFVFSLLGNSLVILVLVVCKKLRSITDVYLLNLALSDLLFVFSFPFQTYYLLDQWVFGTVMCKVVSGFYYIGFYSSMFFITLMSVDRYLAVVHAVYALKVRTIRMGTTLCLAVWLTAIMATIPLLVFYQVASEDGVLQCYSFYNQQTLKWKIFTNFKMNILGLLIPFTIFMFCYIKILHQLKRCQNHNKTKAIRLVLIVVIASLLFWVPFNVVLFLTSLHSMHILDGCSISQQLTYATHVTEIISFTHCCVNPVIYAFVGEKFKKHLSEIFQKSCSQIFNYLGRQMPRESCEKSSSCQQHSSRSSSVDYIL
# T1 sequence (P47898 whole entry, the tested form may be a part): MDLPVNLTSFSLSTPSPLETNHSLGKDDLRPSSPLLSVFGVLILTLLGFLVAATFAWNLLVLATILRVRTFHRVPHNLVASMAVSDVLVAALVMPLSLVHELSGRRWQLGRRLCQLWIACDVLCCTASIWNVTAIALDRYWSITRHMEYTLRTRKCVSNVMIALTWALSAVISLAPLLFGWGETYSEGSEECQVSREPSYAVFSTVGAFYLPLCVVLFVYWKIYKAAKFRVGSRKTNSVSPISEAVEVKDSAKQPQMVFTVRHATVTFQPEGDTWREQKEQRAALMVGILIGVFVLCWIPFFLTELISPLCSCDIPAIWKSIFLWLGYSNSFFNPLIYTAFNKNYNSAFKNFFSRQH
# T9 sequence (P25021 whole entry): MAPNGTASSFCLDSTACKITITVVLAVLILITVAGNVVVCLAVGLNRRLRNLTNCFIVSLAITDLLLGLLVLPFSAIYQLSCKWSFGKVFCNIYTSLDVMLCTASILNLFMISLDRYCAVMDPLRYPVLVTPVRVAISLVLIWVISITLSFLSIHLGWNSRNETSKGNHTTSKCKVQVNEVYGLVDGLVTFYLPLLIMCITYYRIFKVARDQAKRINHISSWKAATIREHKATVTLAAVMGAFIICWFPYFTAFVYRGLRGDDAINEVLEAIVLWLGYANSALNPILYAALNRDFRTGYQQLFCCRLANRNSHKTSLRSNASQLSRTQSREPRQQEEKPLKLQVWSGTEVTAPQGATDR
# T7 sequence (P21918 whole entry): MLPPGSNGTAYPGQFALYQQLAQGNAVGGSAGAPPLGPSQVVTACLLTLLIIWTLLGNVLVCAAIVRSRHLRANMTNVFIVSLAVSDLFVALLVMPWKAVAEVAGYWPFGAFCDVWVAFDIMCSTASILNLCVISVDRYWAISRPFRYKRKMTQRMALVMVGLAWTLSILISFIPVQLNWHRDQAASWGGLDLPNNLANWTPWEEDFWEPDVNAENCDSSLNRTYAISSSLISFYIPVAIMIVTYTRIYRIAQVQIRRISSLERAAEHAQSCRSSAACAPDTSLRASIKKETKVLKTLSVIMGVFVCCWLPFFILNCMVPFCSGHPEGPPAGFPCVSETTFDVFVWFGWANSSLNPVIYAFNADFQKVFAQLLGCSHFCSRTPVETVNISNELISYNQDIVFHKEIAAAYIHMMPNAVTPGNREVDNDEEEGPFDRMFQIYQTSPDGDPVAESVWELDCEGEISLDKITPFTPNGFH
# T3 sequence (P28223 whole entry, the tested form may be a part): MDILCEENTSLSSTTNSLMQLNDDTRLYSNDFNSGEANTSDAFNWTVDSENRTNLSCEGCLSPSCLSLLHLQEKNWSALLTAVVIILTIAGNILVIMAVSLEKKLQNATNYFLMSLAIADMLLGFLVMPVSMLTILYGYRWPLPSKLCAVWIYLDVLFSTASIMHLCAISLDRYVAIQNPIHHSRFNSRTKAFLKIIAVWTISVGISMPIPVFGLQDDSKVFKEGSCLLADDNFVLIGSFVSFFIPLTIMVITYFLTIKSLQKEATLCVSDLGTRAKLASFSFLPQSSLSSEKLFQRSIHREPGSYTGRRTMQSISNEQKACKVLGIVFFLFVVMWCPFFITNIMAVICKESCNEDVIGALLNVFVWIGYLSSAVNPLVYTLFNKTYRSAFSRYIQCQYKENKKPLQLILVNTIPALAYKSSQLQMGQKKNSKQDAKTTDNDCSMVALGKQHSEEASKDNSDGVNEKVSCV
Structure (SMILES),% Agonist Activity (5HT5A; 1 uM) [%],% Agonist Activity (5HT5A; 10 uM) [%],% Antagonist Activity (5HT2C receptor; 1 uM) [%],% Antagonist Activity (5HT2C receptor; 10 uM) [%],% Agonist Activity (5HT2A receptor; 1 uM) [%],% Agonist Activity (5HT2A receptor; 10 uM) [%],"% Agonist Activity (168 GPCRs [1]; BDKRB2, 1 uM) [%]","% Antagonist Activity (168 GPCRs [1]; BDKRB2, 1 uM) [%]","% Agonist Activity (168 GPCRs [1]; BDKRB2, 10 uM) [%]","% Antagonist Activity (168 GPCRs [1]; BDKRB2, 10 uM) [%]",% Agonist Activity (168 GPCRs [2]; Conc 1 uM) [%],% Antagonist Activity (168 GPCRs [2]; Conc 1 uM) [%],% Agonist Activity (168 GPCRs [2]; Conc 10 uM) [%],% Antagonist Activity (168 GPCRs [2]; Conc 10 uM) [%],% Agonist Activity (168 GPCRs [3]; Conc 1 uM) [%],% Antagonist Activity (168 GPCRs [3]; Conc 1 uM) [%],% Agonist Activity (168 GPCRs [3]; Conc 10 uM) [%],% Antagonist Activity (168 GPCRs [3]; Conc 10 uM) [%],"% Agonist Activity (168 GPCRs [4]; DRD5, 1 uM) [%]","% Antagonist Activity (168 GPCRs [4]; DRD5, 1 uM) [%]",further results
"CNC(C)Cc1ccc2c(c1)OCO2 (stereo not drawn) [MDMA, 3,4-Methylenedioxy methamphetamine, reference compound]",7.2,0.8,22.5,52.2,4.9,27.5,0.3,-6.6,0.1,-5.6,1.5,6,-0.3,10.8,0.3,17.9,0.7,9,1.7,10.8,"% antagonist activity (inhibition), 5HT2C (5HT2C receptor; Figure 2B, threshold 50% inhibition): 52.2%; % agonist activity, 5HT2A (5HT2A receptor; 10 μM, cutoff 30% activity): 27.5%; % Agonist Activity (168 GPCRs [4]; DRD5, 10 uM): 1.4%; % Antagonist Activity (168 GPCRs [4]; DRD5, 10 uM): 10.5%; % Agonist Activity (168 GPCRs [5]; CCR8, 1 uM): -0.2%; % Antagonist Activity (168 GPCRs [5]; CCR8, 1 uM): -3.1%; % Agonist Activity (168 GPCRs [5]; CCR8, 10 uM): -0.2%; % Antagonist Activity (168 GPCRs [5]; CCR8, 10 uM): 4.3%; % Agonist Activity (168 GPCRs [6]; HRH2, 1 uM): 3.3%; % Antagonist Activity (168 GPCRs [6]; HRH2, 1 uM): 8.4%; % Agonist Activity (168 GPCRs [6]; HRH2, 10 uM): -3.7%; % Antagonist Activity (168 GPCRs [6]; HRH2, 10 uM): 15.3%"
CNC(C)C(=O)c1ccc2c(c1)OCO2 (stereo not drawn) [methylone],13.6,13.9,21.1,24.2,-0.1,1.4,-3.6,7.3,-2.9,-2.6,-2.2,17.8,-0.2,15.8,0.5,2.7,-0.3,6.6,-0.1,-5.9,"% agonist activity, 5HT5A (greatest activity detected) (5HT5A; 1 or 10 μM, threshold 30% activity): 13.9%; % Agonist Activity (168 GPCRs [4]; DRD5, 10 uM): -0.2%; % Antagonist Activity (168 GPCRs [4]; DRD5, 10 uM): -2.6%; % Agonist Activity (168 GPCRs [5]; CCR8, 1 uM): -0.2%; % Antagonist Activity (168 GPCRs [5]; CCR8, 1 uM): 4.7%; % Agonist Activity (168 GPCRs [5]; CCR8, 10 uM): -0.6%; % Antagonist Activity (168 GPCRs [5]; CCR8, 10 uM): -0.3%; % Agonist Activity (168 GPCRs [6]; HRH2, 1 uM): -2.5%; % Antagonist Activity (168 GPCRs [6]; HRH2, 1 uM): 7.1%; % Agonist Activity (168 GPCRs [6]; HRH2, 10 uM): -2.8%; % Antagonist Activity (168 GPCRs [6]; HRH2, 10 uM): 8.1%"
